Legend:
[1] = target: T1, PKM2(C49S) (Mus musculus, UniProt P52480, C49S); assay: ITC (much weaker than wild type); format: binding
T1 construct: gene Pkm; recombinant mouse PKM2 C49S (pET-28a, E. coli)

[2] = target: T2, pyruvate kinase M2 (PKM2) (Mus musculus, UniProt P52480); assay: ITC; LC/MS/MS peptide mapping of the adduct; CETSA and DARTS in lysates; format: binding
T2 construct: gene Pkm; recombinant mouse PKM2 (pET-28a, E. coli)
T2 sequence (P52480 whole entry): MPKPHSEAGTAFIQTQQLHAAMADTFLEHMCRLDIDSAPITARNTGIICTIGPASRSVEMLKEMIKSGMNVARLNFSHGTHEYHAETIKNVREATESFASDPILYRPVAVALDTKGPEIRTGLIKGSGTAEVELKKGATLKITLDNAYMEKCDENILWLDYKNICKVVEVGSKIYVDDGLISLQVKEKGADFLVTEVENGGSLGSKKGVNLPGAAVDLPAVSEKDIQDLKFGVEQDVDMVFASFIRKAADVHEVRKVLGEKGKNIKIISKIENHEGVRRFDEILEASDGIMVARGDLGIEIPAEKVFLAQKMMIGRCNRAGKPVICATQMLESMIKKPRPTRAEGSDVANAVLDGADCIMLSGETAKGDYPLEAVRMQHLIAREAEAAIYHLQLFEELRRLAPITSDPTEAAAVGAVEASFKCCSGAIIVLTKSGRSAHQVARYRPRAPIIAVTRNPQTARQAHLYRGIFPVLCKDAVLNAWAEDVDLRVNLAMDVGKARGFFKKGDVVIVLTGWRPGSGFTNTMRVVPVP

T1 sequence (P52480 whole entry C49S): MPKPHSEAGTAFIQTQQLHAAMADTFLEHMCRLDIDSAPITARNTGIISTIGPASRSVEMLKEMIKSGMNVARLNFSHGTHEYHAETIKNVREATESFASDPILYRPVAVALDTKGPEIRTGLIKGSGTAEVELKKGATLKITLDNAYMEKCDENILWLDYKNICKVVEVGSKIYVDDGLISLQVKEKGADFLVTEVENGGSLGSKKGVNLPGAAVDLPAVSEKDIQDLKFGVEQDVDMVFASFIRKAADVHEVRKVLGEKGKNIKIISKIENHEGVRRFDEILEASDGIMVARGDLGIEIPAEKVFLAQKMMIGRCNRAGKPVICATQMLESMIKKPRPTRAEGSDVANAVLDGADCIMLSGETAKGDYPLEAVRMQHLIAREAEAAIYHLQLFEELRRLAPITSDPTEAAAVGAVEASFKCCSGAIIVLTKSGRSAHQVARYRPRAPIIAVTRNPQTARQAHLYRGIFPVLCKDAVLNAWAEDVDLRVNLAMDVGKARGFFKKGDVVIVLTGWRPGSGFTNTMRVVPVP

Kd [1]: 37.6 µM
Kd [2]: 0.918 µM
SMILES: CCCCCC(=O)/C=C/[C@@H]1[C@@H](C/C=C\CCCC(=O)O)[C@@H](O)C[C@H]1O [15-keto-PGF2α]

Source: PMC12781075, “Crosstalk between arachidonic acid metabolism and glycolysis drives integrated metabolic-inflammatory reprogramming in macrophages” (International Journal of Biological Sciences, 2026)
